# Columns and labels:
# BaF3 cells = assay: Cell viability of BaF3 control cells; assay type: cell-based, murine; details: Mus musculus, NR = Not Reached
# Method: (§1) FIG. 2A-2F. PU.1 inhibition decreases cell growth and increases apoptosis of PU.1^1″ leukemic cells. (A) Chemical structures of heterocyclic diamidines DB1976, DB2115 and DB2313 used in this study. (B) Relative cell viability of URE−/− cells and BAF3 cells after treatment with increasing concentrations of vehicle or small molecules. Cell viability was assessed after 48 h. Data represent means of technical triplicate from one representative experiment; fold change compared to Vehicle is shown. (C) Cell proliferation assay of URE−/− after treatment with DB1976 (n=5), DB2115 (n=3), DB2313 (n=3), of MOLM13 cells (n=3), and THP1 cells (n=3). Cell counting was performed every 24 h during 4 days. Data represent means±SD of technical triplicate from one representative experiment. Forward strand: SEQ ID NO:3, and Reverse strand: SEQ ID NO:4; derived from the λB motif from the murine Ig lambda 2-4 enhancer, a known native PU.1-dependent gene and specific binding site for PU.1. (D) Clonogenic capacities of URE−/− cells after treatment with DB1976 (n=5), DB2115 (n=3) and DB2313 (n=4) in the first plating, and after serial replatings (n=3). Data represent means±SD of technical triplicate from one representative experiment. (E) Apoptotic cells (Annexin-V+Dapi−) fraction in URE−/− cells after 48 h of treatment with DB1976 (n=6), DB2115 (n=6) and DB2313 (n=3). Data represent the means±SD of independent experiments; fold change compared to Vehicle is shown. *P<0.05, **P<0.01, ***P<0.001, ****P<0.0001 (F) Dose dependent inhibitor of PU.1-dependent transactivation.
# (§2) To determine if our PU.1 inhibitors have an effect on PU.1^low-induced AML cells, we treated the PU.1 URE^−/− AML cell line with compounds at different concentrations. Treatment with the drugs led to a profound decrease in growth of PU.1 URE^−/− AML cells after 48 h whereas it had only minimal or no effects on control cells with normal PU.1 levels (BaF3), even at very high doses (FIG. 3A). […] Similar to our observations with PU.1-directed shRNAs, treatment with pharmacological PU.1 inhibitors led to a significant 1.6-, 2- and 3.5-fold increase of apoptotic cells with DB1976, DB2115 and DB2313, respectively, in murine PU.1 URE^−/− AML cells (FIG. 3C), and similar effects in human MOLM13 cells.
# [1] = tested on: PU.1 URE−/− AML cell line; assay: Cell viability/growth of PU.1 URE−/− AML cells; assay type: cell-based, murine; details: Mus musculus; read-out: IC50 URE−/−
# Method: as §1, §2
IC50 (BaF3 cells),SMILES,IC50 [1]
68 µM,N=C(N)c1ccc2nc(-c3ccc(OCCOCCOc4ccc(-c5nc6ccc(C(=N)N)cc6[nH]5)cc4)cc3)[nH]c2c1 [DB2146],5 µM
416 µM,CN(CCOc1ccc(-c2nc3ccc(C(=N)N)cc3[nH]2)cc1)CCOc1ccc(-c2nc3ccc(C(=N)N)cc3[nH]2)cc1 [DB2150],20 µM
,Cn1c(-c2ccc(OCCCOc3ccc(-c4nc5cc(C(=N)N)ccc5n4C)cc3)cc2)nc2cc(C(=N)N)ccc21 [DB2237],4.4 µM
,CC(C)NC(=N)c1ccc2nc(-c3ccc(OCCOCCOc4ccc(-c5nc6ccc(C(=N)NC(C)C)cc6[nH]5)cc4)cc3)[nH]c2c1 [DB2295],10.5 µM
,CC(C)NC(=N)c1ccc2nc(-c3ccc(OCc4cccc(COc5ccc(-c6nc7ccc(C(=N)NC(C)C)cc7[nH]6)cc5)n4)cc3)[nH]c2c1 [DB2302],7.8 µM
48 µM,Cn1c(-c2ccc(OCc3cccc(COc4ccc(-c5nc6cc(C(=N)N)ccc6n5C)cc4)n3)cc2)nc2cc(C(=N)N)ccc21 [DB2326],1.9 µM
,Cn1c(-c2ccc(-c3ccc(C(=N)N)cc3)s2)nc2cc(-c3ccc(C(=N)N)cc3)ccc21 [DB2457],16.5 µM
,N=C(N)c1ccc2nc(-c3ccc(Oc4ccc(Oc5ccc(-c6nc7ccc(C(=N)N)cc7[nH]6)cc5)cc4)cc3)[nH]c2c1 [DB2483],5.3 µM
44.5 µM,N=C(N)c1ccc2nc(-c3ccc(OCC(F)(F)C(F)(F)Oc4ccc(-c5nc6ccc(C(=N)N)cc6[nH]5)cc4)cc3)[nH]c2c1 [DB2514],5.6 µM

SMILES,IC50 (BaF3 cells),IC50 [1]
N=C(N)c1ccc2nc(-c3ccc(OCC(F)(F)C(F)(F)C(F)(F)COc4ccc(-c5nc6ccc(C(=N)N)cc6[nH]5)cc4)cc3)[nH]c2c1 [DB2355],49 µM,1.7 µM
